How the values were obtained:
[1] = system: Ba/F3 CD74-ROS1 non mutant; test: Antiproliferation assay (Alamar Blue, 72 h); assay type: cell-based, mouse; conditions: Ba/F3 cells, cell growth inhibition
From the text: (§1) To assess targeted degradation of ROS1 fusion proteins, we first established a mouse pro-B cell line Ba/F3 as a model expressing the CD74-ROS1 oncogene or CD74-ROS1 with clinically observed secondary/tertiary mutations. The Ba/F3 cell line is dependent on interleukin-3 for survival and proliferation. Upon transduction of oncogenic ROS1, Ba/F3 cells become independent of interleukin-3 but dependent on the transduced driver gene.
(§2) Ba/F3 immortalized murine bone marrow–derived pro-B cells were obtained from Creative Biogene (Shirley, NY) and cultured in RPMI supplemented with 10% FBS and IL3 (0.5 ng/mL). Ba/F3 cells expressing ROS1 variants were maintained in RPMI supplemented with 10% FBS and puromycin (0.7 mg/mL). […] Each compound was dissolved in DMSO and serially diluted in RPMI for cell culture experiments.
(§3) To assess the 72 h effect of drug treatment on cell proliferation, 2000 to 3000 cells were plated in replicates of three in 96-well plates. The plates were placed in an incubator at 37 °C, 5% CO2 for 72 h. Following drug treatments, the cells were incubated with the Alamar Blue Assay reagent (BioRad), 5 μL each well for 4 h at 37 °C and 5% CO2. Luminescence was measured on a multiplate reader and analyzed. […] IC50 values were determined using a nonlinear regression model with a sigmoidal dose response in GraphPad. The data were collected based on triplicate experiments, and presented as mean ± SD.
(§4) The resulting virus was used to infect Ba/F3 cells. After retroviral infection, Ba/F3 cells were selected by incubation with puromycin (0.7 mg/mL) for 2 weeks. For Ba/F3 cells infected by the CD74–ROS1 variants, IL3 was withdrawn from the culture medium at least 2 weeks before the experiments.

Ba/F3 ROS1-G2032R = test: Antiproliferation assay; assay type: cell-based, mouse; conditions: Ba/F3 cells, cell growth inhibition, 72 h
From the text: as §1, §2, §3, §4

ROS1 = ROS1 degradation in Ba/F3 cells (WES immunoblotting); assay type: cell-based; conditions: for DC50: concentration needed to reduce ROS1 protein by 50%, Ba/F3 cells; for Dmax (%) (ROS1): maximal degradation of ROS1 in Ba/F3 cells
Experimental: Protein levels were analyzed using a WES instrument according to the WES User Guide from ProteinSimple in duplicate experiments. The samples were mixed with the fluorescent 5 master mix (ProteinSimple) and then heated at 95 °C for 5 min. Boiled samples, biotinylated protein ladder, antibody diluent, Streptavidin-HRP, primary antibodies, ProteinSimple horseradish peroxidase conjugated antirabbit or antimouse secondary antibodies, luminol-peroxide, and wash buffer were loaded into the WES plate (Wes 12–230 kDa Prefilled Plates with Split Buffer, ProteinSimple). The plates and capillary cartridges were loaded into the WES instrument, and protein separation, antibody incubation, and imaging were performed according to manufacturer’s instructions. Compass software (ProteinSimple) was used to acquire the data and to generate the virtual blot image reconstruction and chemiluminescence signal intensity electropherograms. […] Protein levels are expressed as the AUC of the peak chemiluminescence intensity. Antibodies against phospho-ROS1(Tyr2274/2334) (E8F5J), ROS1 (D4D6(R)) were obtained from Cell Signaling Technology.

IC50 ([1]; Mus musculus, BaF3, 72 h)	IC50 (Ba/F3 ROS1-G2032R; Mus musculus, BaF3)	DC50 (ROS1)	Molecule	Dmax (%) (ROS1) (ROS1)	IC50 [1]	IC50 (Ba/F3 ROS1-G2032R)
183 ± 41 nM	2560 ± 242 nM	302 nM	Cc1cc(Nc2ncc(Cl)c(Nc3ccccc3S(=O)(=O)C(C)C)n2)c(OC(C)C)cc1C1CCN(C2CCN(CCNc3cccc4c3C(=O)N(C3CCC(=O)NC3=O)C4=O)CC2)CC1 (centres unmarked) [8d, 4-((2-(4-(4-((5-Chloro-4-((2-(isopropylsulfonyl)phenyl)amino)pyrimidin-2-yl)amino)-5-isopropoxy-2-methylphenyl)-[1,4′-bipiperidin]-1′-yl)ethyl)amino)-2-(2,6-dioxopiperidin-3-yl)isoindoline-1,3-dione]	66%		
93 ± 50 nM	4710 ± 486 nM	88 nM	Cc1cc(Nc2ncc(Cl)c(Nc3ccccc3S(=O)(=O)C(C)C)n2)c(OC(C)C)cc1C1CCN(CCCNc2ccc3c(c2)C(=O)N(C2CCC(=O)NC2=O)C3=O)CC1 (centres unmarked) [8i, 5-((3-(4-(4-((5-Chloro-4-((2-(isopropylsulfonyl)phenyl)amino)pyrimidin-2-yl)amino)-5-isopropoxy-2-methylphenyl)piperidin-1-yl)propyl)amino)-2-(2,6-dioxopiperidin-3-yl)isoindoline-1,3-dione]	84%		
102 ± 24 nM	> 10000 nM	145 nM	COc1cc(N2CCC(N3CCN(CC4CCN(c5ccc(NC6CCC(=O)NC6=O)cc5)CC4)CC3)CC2)ccc1Nc1ncc(Cl)c(Nc2ccccc2P(C)(C)=O)n1 (centres unmarked) [9q, 3-((4-(4-((4-(1-(4-((5-Chloro-4-((2-(dimethylphosphoryl)phenyl)amino)pyrimidin-2-yl)amino)-3-methoxyphenyl)piperidin-4-yl)piperazin-1-yl)methyl)piperidin-1-yl)phenyl)amino)piperidine-2,6-dione]	33%		
122 ± 17 nM	> 10000 nM	140 nM	Cc1cc(Nc2ncc(Cl)c(Nc3ccccc3S(=O)(=O)C(C)C)n2)c(OC(C)C)cc1C1CCN(CCCNc2cccc3c2C(=O)N(C2CCC(=O)NC2=O)C3=O)CC1 (centres unmarked) [8b, 4-((3-(4-(4-((5-Chloro-4-((2-(isopropylsulfonyl)phenyl)amino)pyrimidin-2-yl)amino)-5-isopropoxy-2-methylphenyl)piperidin-1-yl)propyl)amino)-2-(2,6-dioxopiperidin-3-yl)isoindoline-1,3-dione]	71%		
842 ± 172 nM	> 5000 nM	> 1000 nM	C[C@@H](Oc1cc(-c2cnn(C3CCN(CCC4CCN(c5ccc6c(c5)C(=O)N(C5CCC(=O)NC5=O)C6=O)CC4)CC3)c2)cnc1N)c1c(Cl)ccc(F)c1Cl (stereo partly drawn) [7h, 5-(4-(2-(4-(4-(6-Amino-5-((R)-1-(2,6-dichloro-3-fluorophenyl)ethoxy)pyridin-3-yl)-1H-pyrazol-1-yl)piperidin-1-yl)ethyl)piperidin-1-yl)-2-(2,6-dioxopiperidin-3-yl)isoindoline-1,3-dione]	11%		
106 ± 9 nM	> 10000 nM	120 nM	Cc1cc(Nc2ncc(Cl)c(Nc3ccccc3S(=O)(=O)C(C)C)n2)c(OC(C)C)cc1C1CCN(C2CCN(C3CCN(c4ccc5c(c4)C(=O)N(C4CCC(=O)NC4=O)C5=O)CC3)CC2)CC1 (centres unmarked) [8s, 5-(4-(4-((5-Chloro-4-((2-(isopropylsulfonyl)phenyl)amino)pyrimidin-2-yl)amino)-5-isopropoxy-2-methylphenyl)-[1,4′:1′,4″-terpiperidin]-1″-yl)-2-(2,6-dioxopiperidin-3-yl)isoindoline-1,3-dione]	82%		
128 ± 39 nM	6630 ± 1800 nM	145 nM	Cc1cc(Nc2ncc(Cl)c(Nc3ccccc3S(=O)(=O)C(C)C)n2)c(OC(C)C)cc1C1CCN(CCNc2ccc3c(c2)C(=O)N(C2CCC(=O)NC2=O)C3=O)CC1 (centres unmarked) [8h, 5-((2-(4-(4-((5-Chloro-4-((2-(isopropylsulfonyl)phenyl)amino)pyrimidin-2-yl)amino)-5-isopropoxy-2-methylphenyl)piperidin-1-yl)ethyl)amino)-2-(2,6-dioxopiperidin-3-yl)isoindoline-1,3-dione]	71%		
284 ± 51 nM	> 5000 nM	338 nM	C[C@@H](Oc1cc(-c2cnn(C3CCN(CC4CCN(CC5CCN(c6ccc7c(c6)C(=O)N(C6CCC(=O)NC6=O)C7=O)CC5)CC4)CC3)c2)cnc1N)c1c(Cl)ccc(F)c1Cl (stereo partly drawn) [7i, 5-(4-((4-((4-(4-(6-Amino-5-((R)-1-(2,6-dichloro-3-fluorophenyl)ethoxy)pyridin-3-yl)-1H-pyrazol-1-yl)piperidin-1-yl)methyl)piperidin-1-yl)methyl)piperidin-1-yl)-2-(2,6-dioxopiperidin-3-yl)isoindoline-1,3-dione]	32%		
112 ± 17 nM	251 ± 125 nM	133 nM	COc1cc(N2CCN(c3ccc4c(c3)C(=O)N(C3CCC(=O)NC3=O)C4=O)CC2)ccc1Nc1ncc(Cl)c(Nc2ccccc2P(C)(C)=O)n1 (centres unmarked) [9a, 5-(4-(4-((5-Chloro-4-((2-(dimethylphosphoryl)phenyl)amino)pyrimidin-2-yl)amino)-3-methoxyphenyl)piperazin-1-yl)-2-(2,6-dioxopiperidin-3-yl)isoindoline-1,3-dione]	68%		
264 ± 44 nM	> 5000 nM	310 nM	C[C@@H](Oc1cc(-c2cnn(C3CCN(c4cccc5c4C(=O)N(C4CCC(=O)NC4=O)C5=O)CC3)c2)cnc1N)c1c(Cl)ccc(F)c1Cl (stereo partly drawn) [7a, 4-(4-(4-(6-Amino-5-((R)-1-(2,6-dichloro-3-fluorophenyl)ethoxy)pyridin-3-yl)-1H-pyrazol-1-yl)piperidin-1-yl)-2-(2,6-dioxopiperidin-3-yl)isoindoline-1,3-dione]	67%		
155 ± 21 nM	2910 ± 742 nM	203 nM	C[C@@H](Oc1cc(-c2cnn(C3CCN(c4ccc5c(c4)C(=O)N(C4CCC(=O)NC4=O)C5=O)CC3)c2)cnc1N)c1c(Cl)ccc(F)c1Cl (stereo partly drawn) [7e, 5-(4-(4-(6-Amino-5-((R)-1-(2,6-dichloro-3-fluorophenyl)ethoxy)pyridin-3-yl)-1H-pyrazol-1-yl)piperidin-1-yl)-2-(2,6-dioxopiperidin-3-yl)isoindoline-1,3-dione]	53%		
15 ± 4 nM	> 5000 nM	21 nM	C[C@@H](Oc1cc(-c2cnn(C3CCN(CC4CCN(c5ccc6c(c5)C(=O)N(C5CCC(=O)NC5=O)C6=O)CC4)CC3)c2)cnc1N)c1c(Cl)ccc(F)c1Cl (stereo partly drawn) [7g, 5-(4-((4-(4-(6-Amino-5-((R)-1-(2,6-dichloro-3-fluorophenyl)ethoxy)pyridin-3-yl)-1H-pyrazol-1-yl)piperidin-1-yl)methyl)piperidin-1-yl)-2-(2,6-dioxopiperidin-3-yl)isoindoline-1,3-dione]	85%		
147 ± 28 nM	> 10000 nM	155 nM	Cc1cc(Nc2ncc(Cl)c(Nc3ccccc3S(=O)(=O)C(C)C)n2)c(OC(C)C)cc1C1CCN(C2CCN(CC3CCN(c4ccc5c(c4)C(=O)N(C4CCC(=O)NC4=O)C5=O)CC3)CC2)CC1 (centres unmarked) [8t, 5-(4-((4-(4-((5-Chloro-4-((2-(isopropylsulfonyl)phenyl)amino)pyrimidin-2-yl)amino)-5-isopropoxy-2-methylphenyl)-[1,4′-bipiperidin]-1′-yl)methyl)piperidin-1-yl)-2-(2,6-dioxopiperidin-3-yl)isoindoline-1,3-dione]	81%		

Molecule	IC50 ([1]; Mus musculus, BaF3, 72 h)	IC50 (Ba/F3 ROS1-G2032R; Mus musculus, BaF3)	DC50 (ROS1)	Dmax (%) (ROS1) (ROS1)	IC50 [1]	IC50 (Ba/F3 ROS1-G2032R)
4-(3-(4-(1-(4-((5-Chloro-4-((2-(dimethylphosphoryl)phenyl)amino)pyrimidin-2-yl)amino)-3-methoxyphenyl)piperidin-4-yl)piperazin-1-yl)azetidin-1-yl)-2-(2,6-dioxopiperidin-3-yl)isoindoline-1,3-dione [9j]			108 nM	77%	113 ± 16 nM	1040 ± 96 nM

Reference: paper PMC11513893, “Discovery of Oral Degraders of the ROS1 Fusion Protein with Potent Activity against Secondary Resistance Mutations” (Journal of Medicinal Chemistry, 2024)
